# Laboratory results from patent publication US12275731B2, “Azaindole inhibitors of wild-type and mutant forms of LRRK2” (DANA-FARBER CANCER INSTITUTE, INC., priority 2018, dated 2025).
# How the values were obtained:
# Assay in all cases: KinomeScan profiling
# Format in all cases: binding
# PIP5K1C = biological target: T1, PIP5K1C (Homo sapiens, UniProt O60331); settings: read-out: % control
# T1 construct: purchased KinomeScan® (panel service)
# In short: (§1)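 The panel spans 468 kinases, and each inventive compound was applied at 1 μM from DMSO. Lower % control means stronger binding; the activity cut-off is set at less than 35%.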
# ULK2 = biological target: T2, ULK2 (Homo sapiens, UniProt Q8IYT8); settings: ULK2, 1 μM; read-out: % control
# T2 sequence (Q8IYT8 1-1036): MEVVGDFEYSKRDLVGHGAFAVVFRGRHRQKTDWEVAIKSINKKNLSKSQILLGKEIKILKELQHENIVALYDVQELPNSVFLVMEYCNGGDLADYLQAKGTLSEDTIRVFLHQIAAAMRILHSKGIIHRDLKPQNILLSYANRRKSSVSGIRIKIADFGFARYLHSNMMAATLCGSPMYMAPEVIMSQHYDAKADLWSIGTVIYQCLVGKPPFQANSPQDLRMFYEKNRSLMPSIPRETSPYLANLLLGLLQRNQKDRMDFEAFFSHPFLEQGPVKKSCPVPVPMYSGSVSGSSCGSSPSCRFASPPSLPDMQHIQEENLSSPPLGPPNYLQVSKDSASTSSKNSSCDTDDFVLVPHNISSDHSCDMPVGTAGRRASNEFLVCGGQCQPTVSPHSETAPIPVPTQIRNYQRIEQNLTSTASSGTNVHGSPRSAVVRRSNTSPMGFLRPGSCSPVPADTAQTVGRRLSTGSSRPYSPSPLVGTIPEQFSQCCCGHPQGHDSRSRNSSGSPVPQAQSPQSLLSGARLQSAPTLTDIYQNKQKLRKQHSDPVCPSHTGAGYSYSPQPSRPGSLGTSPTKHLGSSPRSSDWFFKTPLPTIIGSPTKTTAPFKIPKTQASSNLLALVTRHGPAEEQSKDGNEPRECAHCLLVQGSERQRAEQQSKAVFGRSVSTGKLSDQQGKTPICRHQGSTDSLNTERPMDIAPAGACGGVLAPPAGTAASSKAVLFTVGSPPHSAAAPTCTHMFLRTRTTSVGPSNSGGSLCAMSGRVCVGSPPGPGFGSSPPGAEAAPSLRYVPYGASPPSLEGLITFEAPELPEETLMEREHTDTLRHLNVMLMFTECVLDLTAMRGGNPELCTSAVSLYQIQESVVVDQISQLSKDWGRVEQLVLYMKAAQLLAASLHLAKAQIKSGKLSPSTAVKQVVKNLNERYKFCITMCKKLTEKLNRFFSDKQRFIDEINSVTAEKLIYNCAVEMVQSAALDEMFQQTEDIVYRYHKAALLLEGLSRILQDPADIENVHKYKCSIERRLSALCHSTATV
# In short: as §1
# MAP3K15 = biological target: T3, MAP3K15 (Homo sapiens, UniProt Q6ZN16); settings: MAP3K15, 1 μM; read-out: % control
# T3 sequence (Q6ZN16 1-1313): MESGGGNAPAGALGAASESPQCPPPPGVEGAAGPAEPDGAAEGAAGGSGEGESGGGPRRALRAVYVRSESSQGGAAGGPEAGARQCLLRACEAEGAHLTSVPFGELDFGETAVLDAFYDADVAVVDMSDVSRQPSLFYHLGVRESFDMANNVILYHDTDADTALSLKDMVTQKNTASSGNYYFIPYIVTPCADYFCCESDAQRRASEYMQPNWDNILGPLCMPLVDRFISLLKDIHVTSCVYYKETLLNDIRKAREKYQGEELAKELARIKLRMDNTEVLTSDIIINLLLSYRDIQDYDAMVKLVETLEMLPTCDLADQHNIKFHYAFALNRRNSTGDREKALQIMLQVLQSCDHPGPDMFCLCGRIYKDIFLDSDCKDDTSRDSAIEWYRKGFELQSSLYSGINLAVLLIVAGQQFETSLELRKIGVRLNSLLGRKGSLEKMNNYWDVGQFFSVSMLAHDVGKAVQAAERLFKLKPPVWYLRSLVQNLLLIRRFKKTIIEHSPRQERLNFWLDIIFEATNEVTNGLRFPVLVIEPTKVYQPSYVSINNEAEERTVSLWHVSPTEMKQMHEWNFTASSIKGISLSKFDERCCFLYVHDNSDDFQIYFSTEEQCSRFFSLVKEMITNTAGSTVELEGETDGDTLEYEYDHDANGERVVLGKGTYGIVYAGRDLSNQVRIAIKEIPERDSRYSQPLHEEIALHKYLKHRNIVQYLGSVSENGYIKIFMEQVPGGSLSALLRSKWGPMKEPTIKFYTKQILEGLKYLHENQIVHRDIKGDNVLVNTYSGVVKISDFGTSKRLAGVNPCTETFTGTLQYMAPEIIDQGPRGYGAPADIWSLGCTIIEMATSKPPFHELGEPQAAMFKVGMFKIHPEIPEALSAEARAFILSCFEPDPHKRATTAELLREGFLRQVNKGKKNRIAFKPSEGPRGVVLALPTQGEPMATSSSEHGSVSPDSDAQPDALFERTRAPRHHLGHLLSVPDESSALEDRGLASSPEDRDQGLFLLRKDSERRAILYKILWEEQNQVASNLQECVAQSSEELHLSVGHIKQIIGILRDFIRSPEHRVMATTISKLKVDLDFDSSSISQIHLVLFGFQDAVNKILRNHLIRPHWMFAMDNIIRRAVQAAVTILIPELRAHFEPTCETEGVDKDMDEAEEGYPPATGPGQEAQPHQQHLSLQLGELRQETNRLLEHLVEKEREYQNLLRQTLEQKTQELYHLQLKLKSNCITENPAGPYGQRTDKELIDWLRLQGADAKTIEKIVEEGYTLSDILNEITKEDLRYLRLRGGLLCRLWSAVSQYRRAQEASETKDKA
# In short: as §1
# T1 sequence (O60331 whole entry): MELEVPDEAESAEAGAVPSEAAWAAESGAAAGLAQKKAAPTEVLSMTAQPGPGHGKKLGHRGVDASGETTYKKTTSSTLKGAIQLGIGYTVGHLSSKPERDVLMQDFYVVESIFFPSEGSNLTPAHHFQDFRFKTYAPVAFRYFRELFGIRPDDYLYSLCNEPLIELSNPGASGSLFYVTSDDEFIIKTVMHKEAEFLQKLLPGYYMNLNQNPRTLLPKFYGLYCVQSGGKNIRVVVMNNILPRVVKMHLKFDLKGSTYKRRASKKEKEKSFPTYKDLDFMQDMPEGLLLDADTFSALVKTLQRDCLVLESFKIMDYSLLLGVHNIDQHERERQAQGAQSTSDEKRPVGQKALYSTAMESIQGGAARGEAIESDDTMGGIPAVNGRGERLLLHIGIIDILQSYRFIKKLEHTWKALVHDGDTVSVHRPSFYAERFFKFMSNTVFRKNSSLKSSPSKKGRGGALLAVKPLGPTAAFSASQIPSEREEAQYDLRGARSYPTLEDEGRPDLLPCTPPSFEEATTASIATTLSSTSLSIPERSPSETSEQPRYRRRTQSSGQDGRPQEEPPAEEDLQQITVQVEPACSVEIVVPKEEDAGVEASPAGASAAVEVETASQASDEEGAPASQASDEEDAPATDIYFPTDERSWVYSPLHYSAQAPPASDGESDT
SMILES,remaining binding at 1 µM (PIP5K1C) [%],remaining binding at 1 µM (ULK2) [%],remaining binding at 1 µM (MAP3K15) [%]
"CNc1c(-c2cnn([C@H]3CCN(C(C)=O)C[C@@H]3F)c2)cnc2[nH]cc(Cl)c12 [Compound 77, 1-((3S,4S)-4-(4-(3-chloro-4-(methylamino)-1H-pyrrolo[2,3-b]pyridin-5-yl)-1H-pyrazol-1-yl)-3-fluoropiperidin-1-yl)ethan-1-one]",37,15,1.4
"CNc1c(-c2ccc(C(=O)N3CCC(N4CCOCC4)CC3)cc2)cnc2[nH]cc(Cl)c12 [Compound 96, (4-(3-chloro-4-(methylamino)-1H-pyrrolo[2,3-b]pyridin-5-yl)phenyl)(4-morpholinopiperidin-1-yl)methanone]",49,8.7,1.8
"O=C(c1ccc(-c2cnc3[nH]cc(Cl)c3c2NC2CCCC2)cc1)N1CCC(N2CCOCC2)CC1 [Compound 101, (4-(3-chloro-4-(cyclopentylamino)-1H-pyrrolo[2,3-b]pyridin-5-yl)phenyl)(4-morpholinopiperidin-1-yl)methanone]",57,98,100
